Reference: paper PMC9513234, “Synthesis and Biological Evaluation of Termini-Modified and Cyclic Variants of the Connexin43 Inhibitor Peptide5” (Frontiers in Chemistry, 2022)
Entries after “also recorded” stand apart in the source; their conditions may differ. Where a SMILES comes first, the peptide text is derived from it. Bridges are numbered along the chain shown (N, C = ends). [ ]: non-standard residue; d: D form. The star is where a group is joined. AllylGly = C=CC[C@H](N)C(=O)O; Ethoxycarbonyl = CCOC(=O)*; Butyryl = CCCC(=O)*; Bz = O=C(c1ccccc1)*; N3 = azide

Key:
[1] = system: gap junctions in hCMVEC cells; conditions: 100 µM; for LY dye spread (number of LY-positive cells) as percentage of untreated control: mean ± SEM
Method: We next investigated the ability of peptide5 variants to inhibit gap junctional communication using a scrape loading assay. In this assay, the cells in culture are loaded with a dye (Lucifer Yellow dilithium salt (LY), M.W. 457.25 Da) of molecular size (<1 kDa) that is able to transit through the gap junctions and the degree of dye spread is then measured by counting the number of cells that contain LY (Supplementary Material, Method 4) ^1. Consistent with our previous study, peptide5 (1) and Cbx reduced the degree of dye spread following incubation with LY (56.16 ± 2.1%; p < 0.0001 and 16.2 ± 1.1%; p < 0.0001, respectively) compared to the untreated controls (Figure 12).
(§1) Human cerebral microvascular endothelial cells (hCMVEC) were purchased from Applied Biological Materials (ABM) Inc, Canada (cat # T0259) (O'Carroll et al., 2015). Cells were cultured in 1 μg/cm^2 collagen I (Gibco) coated T75 flasks from Corning (NY, USA). The growth media was M199 media (Gibco), supplemented with 10% FBS, 1 μg/mL hydrocortisone (Sigma), 3 μg/mL human FGF (Peprotech), 10 μg/mL human EGF (Peprotech), 10 μg/mL heparin (Sigma), 2 mM Glutamax (Gibco), and 80 μM butyryl cAMP (Sigma).
For experiments hCMVECs cells were plated M199 media at a density of 4 x 10^5 cells per well in a collagen coated (1 µg/cm^2) 12-well plate the day prior to the experiment to ensure a confluent monolayer of hCMVECs. On the day of the experiment cells were pre-incubated in carbenoxolone, (100 µM) Peptide5 (5–100 µM) or modified analogues (100 µM) or M199 as a negative control. Cells were washed three times with phosphate buffered saline (PBS) without Ca^2+ or Mg^2+ and incubated in 0.05% Lucifer Yellow (LY) (Sigma), a fluorescent dye that is transferred through coupled gap junction channels (el-Fouly, Trosko, & Chang, 1987), and scrape-wounded with a size 10 carbon steel surgical blade (Swann-Morton, England). Following a 5 minute incubation at 37 °C in 95% O2 and 5% CO2 without light, the 0.05% LY solution was removed. Cells were rinsed four times with HBSS containing Ca^2+ ^+, and then fixed in 4% paraformaldehyde (PFA) in PBS at pH 7.4 for 10 minutes at room temperature. Cells were then washed 3 times in PBS to remove PFA before fluorescent imaging. Fluorescent images were visualized using a Nikon TE2000E inverted fluorescent microscope (10x magnification, 0.3 numerical aperture), and captured using a Digital Sight CCD camera and Eclipse Net software (Nikon). Three images within each well from three independent experiments were taken for analysis, and the total number of cells showing dye uptake from those that had been loaded were counted manually by masked observers. Each peptide was tested in at least an n of 2 separate experiments.

[2] = biological target: T1, Cx43 hemichannel (Homo sapiens, UniProt P17302); experiment: HAIR ischemic injury-induced ATP release (hemichannel) assay, bioluminescence; format: cell-based; conditions: hCMVEC cells, 2 h in HAIR solution, 100 µM; for ATP release compared to HAIR control (result in words) / ATP release compared to peptide5 (result in words): one-way ANOVA, Dunnett; for ATP release over untreated HAIR controls: mean ± SEM
T1 construct: ischemic injury–induced ATP release from hCMVEC cells in vitro; host or cells: hCMVEC (human cerebral microvascular endothelial cells)
T1 sequence (P17302 whole entry): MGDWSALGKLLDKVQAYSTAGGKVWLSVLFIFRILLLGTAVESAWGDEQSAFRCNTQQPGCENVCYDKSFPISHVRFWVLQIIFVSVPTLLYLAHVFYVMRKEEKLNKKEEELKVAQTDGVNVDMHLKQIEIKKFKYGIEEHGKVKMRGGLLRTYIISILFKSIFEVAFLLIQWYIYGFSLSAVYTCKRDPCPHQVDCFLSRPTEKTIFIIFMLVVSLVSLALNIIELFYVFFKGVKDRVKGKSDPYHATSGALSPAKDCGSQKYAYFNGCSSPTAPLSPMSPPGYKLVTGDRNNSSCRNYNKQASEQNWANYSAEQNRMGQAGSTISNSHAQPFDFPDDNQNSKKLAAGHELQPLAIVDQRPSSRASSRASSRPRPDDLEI
Method: To test the effect of the peptide modifications on peptide5 (1) activity against hemichannels, a model of ischemic insult on a cell culture model of the brain microvasculature was used to induce Cx43 hemichannel opening and ATP release (Supplementary Material, Method 4). The cells were incubated in hypoxic-acidic ion-shifted ringers (HAIR) solution to generate disrupted pH and ion balance leading to ATP leak from the cells, which can be sampled and quantified luminometrically using a commercially available firefly luciferase assay (Molecular Probes).
as §1
For experiments hCMVECs were plated in M199 media at a density of 2.5 x 10^4 cells per well in a collagen-coated (1 µg/cm^2) 12-well plate the day prior to the experiment. Hypoxic, acidic, ion-shifted Ringer (HAIR) injury solution that mimics ionic concentrations and acid-base shifts of the interstitial space in hypoxic-ischemic brains (Bondarenko & Chesler, 2001) was used to trigger hemichannel opening as described previously (Kim et al., 2017). HAIR solution (38 mM NaCl, 13 mM NaHCO3, 3 mM Na-gluconate, 65 mM K-gluconate, 38 mM NMDG-Cl, 1 mM NaH2PO4, and 1.5 mM MgCl2) was bubbled in 95% N2, 5% CO2 gas (20 L/min) for 5 minutes and pH adjusted to 6.6 before use. To induce ischemic, cells were incubated for 2 hours in 500 µL HAIR solution +/- carbenoxolone (100 µM), Peptide5 or modified analogues (100 µM). For the negative control, hCMVEC cells were incubated for 2 hours in 500 µL standard Ringer solution 124 mM NaCl, 3 mM KCl, 26 mM NaHCO3, […], 1 mM NaH2PO4, 1.3 mM CaCl2, 1.5 MgCl2, and 10 mM glucose) adjusted to pH 7.4 before use. All incubations were carried out at 37 °C in 95% O2 and 5% CO2. At the end of each experiment, samples were removed and immediately placed on ice. The concentration of ATP in the samples was determined using a luciferin/luciferase bioluminescence reaction (ATP Determination Kit, Molecular Probes) and detected using a luminescence plate reader (FLUOStar OPTIMA FL, BMG Labtech). Standard curves were generated for each experiment from an ATP standard (0 to 500 nM) and used to convert bioluminescence units to ATP concentration. […] Only readings in the plateau phase of the reaction were included in averaging for the well value. Each peptide was tested in at least an n of 2 separate experiments.

[3] = Human serum stability assay (RP-HPLC); conditions: for stability in human serum (result in words): 25% aq. human serum, 37°C, 48 h
Method: We then evaluated the N-methylated variants 7 and 8, D amino acid variants 9 and 10, and the two carbo cyclic peptides 39 and 42. Each peptide was incubated with 25% aq. human serum at 37°C, and 6 aliquots were extracted within 48 h. The stability of each peptide upon exposure to human serum was then analyzed via analytical RP HPLC, and the amount of peptide still present at each time point was recorded relative to t = 0 h.
Whole blood was collected from a healthy volunteer and stored in a covered test tube and was allowed to clot by leaving it undisturbed at r.t. for ca. 1 h. The clot was removed by centrifugation at 1,000-2,000 x g for 10 min and the resulting supernatant was designated as the serum. The serum was collected and stored in 0.5 mL aliquots, whereby the samples were stored at - 20 °C.
200 µM concentration of peptide was incubated in 25% aq. human serum (1.7 mL) and left to shake at 37 °C. Aliquots of human serum-peptide mixture (270 µL) were taken at given times (0 h, 1 h, 4 h, 8 h, 24 h, and 48 h) and threefold excess of acetonitrile (810 µL) was added to the aliquot and left for 1 h at 0 °C. The samples underwent centrifugation (14,500 rpm) for 30 min at r.t. and the supernatant was subsequently collected. Upon evaporation of the solvents, the resulting dry, pale-yellow residue was dissolved in water containing 0.1 % TFA.
The dissolved solution was analysed via analytical RP HPLC and the quantity of the peptide was expressed as a percentage relative to the peptide peak area obtained at time zero (i.e. 100% peptide amount at t = 0 h). A scatterplot graph representing percentage of peptide versus time was generated.

[4] = system: gap junctions; conditions: ref Kim et al., 2017b; cited from earlier work

CC1(C)[C@@H](OC(=O)CCC(=O)O)CC[C@]2(C)[C@H]3C(=O)C=C4[C@@H]5C[C@@](C)(C(=O)O)CC[C@]5(C)CC[C@@]4(C)[C@]3(C)CC[C@@H]12 [Cbx, carbenoxolone, reference compound]
LY dye spread (number of LY-positive cells) as percentage of untreated control [1]: 16.2 ± 1.1%

CC(C)C[C@H](NC(=O)[C@H](Cc1ccccc1)NC(=O)[C@H](CS)NC(=O)[C@H](CC(=O)O)NC(=O)[C@@H](N)C(C)C)C(=O)N[C@@H](CO)C(=O)N[C@@H](CCCNC(=N)N)C(=O)N1CCC[C@H]1C(=O)N[C@H](C(=O)N[C@@H](CCC(=O)O)C(=O)N[C@H](CCCCN)C(=O)N[C@H](C(=O)O)[C@@H](C)O)[C@@H](C)O [Peptide 9, H2N-VDCFLSRPTEkT-CO2H] (H-VDCFLSRPTE[dK]T-OH)
LY dye spread compared to peptide5 (result in words) [1]: not statistically different from peptide5 | LY dye spread (number of LY-positive cells) as percentage of untreated control [1]: 74.7 ± 10.4%

CC(C)C[C@H](NC(=O)[C@H](Cc1ccccc1)NC(=O)[C@H](CS)NC(=O)[C@H](CC(=O)O)NC(=O)[C@@H](N)C(C)C)C(=O)N[C@@H](CO)C(=O)N[C@H](CCCNC(=N)N)C(=O)N1CCC[C@H]1C(=O)N[C@H](C(=O)N[C@@H](CCC(=O)O)C(=O)N[C@@H](CCCCN)C(=O)N[C@H](C(=O)O)[C@@H](C)O)[C@@H](C)O [Peptide 10, H2N-VDCFLSrPTEKT-CO2H] (H-VDCFLS[dR]PTEKT-OH)
ATP release compared to HAIR control (result in words) [2]: complete lack of activity | ATP release compared to peptide5 (result in words) [2]: significantly increased compared to peptide5 (1) | LY dye spread / gap junction inhibition compared to control (result in words) [1]: did not reduce the degree of dye spread compared to control | LY dye spread compared to peptide5 (result in words) [1]: significantly increased compared to peptide5 (1)

CC(C)C[C@@H]1NC(=O)[C@H](Cc2ccccc2)NC(=O)[C@H](CS)NC(=O)[C@H](CC(=O)O)NC(=O)[C@H](C(C)C)NC(=O)[C@@H](N)CC=CC[C@@H](C(=O)O)NC(=O)[C@H]([C@@H](C)O)NC(=O)[C@H](CCCCN)NC(=O)[C@H](CCC(=O)O)NC(=O)[C@H]([C@@H](C)O)NC(=O)[C@@H]2CCCN2C(=O)[C@H](CCCNC(=N)N)NC(=O)[C@H](CO)NC1=O [Peptide 39] (H-[AllylGly]VDCFLSRPTEKT[AllylGly]-OH; staple 1-14)
stability in human serum (result in words) [3]: good stability over 48 h; also recorded: the most stable in human serum

CC(C)C[C@@H]1NC(=O)[C@H](Cc2ccccc2)NC(=O)[C@H](CS)NC(=O)[C@H](CC(=O)O)NC(=O)[C@H](C(C)C)NC(=O)[C@@H](N)CC=CC[C@@H](C(=O)N[C@H](C(=O)O)[C@@H](C)O)NC(=O)[C@H](CCC(=O)O)NC(=O)[C@H]([C@@H](C)O)NC(=O)[C@@H]2CCCN2C(=O)[C@H](CCCNC(=N)N)NC(=O)[C@H](CO)NC1=O [Peptide 42] (H-[AllylGly]VDCFLSRPTE[AllylGly]T-OH; staple 1-12)
stability in human serum (result in words) [3]: extremely resistant to enzymatic degradation; also recorded: the most stable in human serum | remaining at 48 h, 200 µM ([3]; human, serum): ~90%

(CH 3 ) 2 CH 2 CH 2 OCO-NH-VDCFLSRPTEKT-CO2H (isopentyloxycarbonyl-VDCFLSRPTEKT-OH) [Peptide 3]
ATP release over untreated HAIR controls [2]: 52.6 ± 1.3% | ATP release compared to peptide5 (result in words) [2]: equaling the efficacy of peptide5 (1)

CH 3 CH 2 CH 2 CO-NH-VDCFLSRPTEKT-CO2H (Butyryl-VDCFLSRPTEKT-OH) [Peptide 5]
ATP release over untreated HAIR controls [2]: 57.3 ± 12.4% | ATP release compared to peptide5 (result in words) [2]: equaling the efficacy of peptide5 (1)

CH 3 CH 2 CH 2 CO-NH-VDCFLSRPTEKT-CONH 2 (Butyryl-VDCFLSRPTEKT-NH2) [Peptide 14]
LY dye spread compared to peptide5 (result in words) [1]: significantly increased dye spread relative to peptide5 (1)

CH 3 CH 2 OCO-NH-VDCFLSRPTEKT-CO2H (Ethoxycarbonyl-VDCFLSRPTEKT-OH) [Peptide 2]
ATP release compared to HAIR control (result in words) [2]: did not reduce ATP release compared to HAIR control | LY dye spread compared to peptide5 (result in words) [1]: significantly increased dye spread relative to peptide5 (1)

CH 3 CH 2 OCO-NH-VDCFLSRPTEKT-CONH 2 (Ethoxycarbonyl-VDCFLSRPTEKT-NH2) [Peptide 11]
LY dye spread compared to peptide5 (result in words) [1]: significantly increased dye spread relative to peptide5 (1)

H2N-VDCFLSRPTEKT-CH 2 OH (H-VDCFLSRPTEKT-CH2OH) [Peptide 15]
LY dye spread compared to peptide5 (result in words) [1]: significantly increased dye spread relative to peptide5 (1)

N 3 -VDCFLSRPTEKT-CO2H (N3-VDCFLSRPTEKT-OH) [Peptide 6]
ATP release compared to HAIR control (result in words) [2]: complete lack of activity; also recorded: did not reduce ATP release compared to HAIR control | ATP release compared to peptide5 (result in words) [2]: significantly increased compared to peptide5 (1) | LY dye spread compared to peptide5 (result in words) [1]: significantly increased dye spread relative to peptide5 (1)

PhCO-NH-VDCFLSRPTEKT-CO2H (Bz-VDCFLSRPTEKT-OH) [Peptide 4]
ATP release compared to HAIR control (result in words) [2]: did not reduce ATP release compared to HAIR control | LY dye spread compared to peptide5 (result in words) [1]: significantly increased dye spread relative to peptide5 (1)

SRPTEKT [a truncated peptide5]
gap junction inhibition compared with peptide5 (result in words) [4]: equally effective as a gap junction inhibitor
